Patent publication US6905841B2, “Enzymatic substrates for detecting Pseudomonas aeruginas” (Biomerieux S.A., priority 1999, dated 2005)
Like-named read-outs stand apart in the source and are kept apart here.

How the values were obtained:
[1] = tested on: β-alanine aminopeptidase; assay: APIZYM-type test strips with β-alanyl-β-naphthylamide; assay type: cell-based; details: Pseudomonas putida; five strains
[2] = tested on: β-alanine aminopeptidase; assay: as above; assay type: cell-based; details: Salmonella choleraesuis; five strains
[3] = tested on: β-alanine aminopeptidase; assay: as above; assay type: cell-based; details: Achroniobacter xylosoxidans spp. denitrificans; five strains
[4] = tested on: β-alanine aminopeptidase; assay: as above; assay type: cell-based; details: Escherichia coli; five strains
[5] = tested on: β-alanine aminopeptidase; assay: as above; assay type: cell-based; details: Vibrio alginolyticus; five strains
[6] = tested on: β-alanine aminopeptidase; assay: as above; assay type: cell-based; details: proches de Pasteurella; 4 strains
[7] = tested on: β-alanine aminopeptidase; assay: as above; assay type: cell-based; details: Brevundimonas diminuta; five strains
[8] = tested on: β-alanine aminopeptidase; assay: as above; assay type: cell-based; details: Comamonas acidovorans; five strains
[9] = tested on: β-alanine aminopeptidase; assay: as above; assay type: cell-based; details: Empedobacter brevis; 3 strains
[10] = tested on: β-alanine aminopeptidase; assay: as above; assay type: cell-based; details: Citrobacter diversus; five strains
[11] = tested on: β-alanine aminopeptidase; assay: as above; assay type: cell-based; details: Enterobacter cloacae; five strains
[12] = tested on: β-alanine aminopeptidase; assay: as above; assay type: cell-based; details: Yersinia enterocolitica; five strains
[13] = tested on: β-alanine aminopeptidase; assay: as above; assay type: cell-based; details: Chryseobacterium indologenes; five strains
[14] = tested on: β-alanine aminopeptidase; assay: as above; assay type: cell-based; details: Moraxella paraphenylpyruvica; 3 strains
[15] = tested on: β-alanine aminopeptidase; assay: as above; assay type: cell-based; details: Pseudomonas alcaligenes; five strains
[16] = tested on: β-alanine aminopeptidase; assay: as above; assay type: cell-based; details: Salmonella typhi; five strains
[17] = tested on: β-alanine aminopeptidase; assay: as above; assay type: cell-based; details: Edwarsiella tarda; 2 strains
[18] = tested on: β-alanine aminopeptidase; assay: as above; assay type: cell-based; details: Serratia marcescens; five strains
[19] = tested on: β-alanine aminopeptidase; assay: as above; assay type: cell-based; details: Klebsiella rhinoscleromatis; 3 strains
[20] = tested on: β-alanine aminopeptidase; assay: as above; assay type: cell-based; details: Pasteurella pneumotropica; 4 strains
[21] = tested on: β-alanine aminopeptidase; assay: as above; assay type: cell-based; details: Pseudomonas mendocina; five strains
[22] = tested on: β-alanine aminopeptidase; assay: as above; assay type: cell-based; details: Moraxella lacunata; 4 strains
[23] = tested on: β-alanine aminopeptidase; assay: as above; assay type: cell-based; details: Klebsiella pneumoniae, spp. oxytoca; five strains
[24] = tested on: β-alanine aminopeptidase; assay: as above; assay type: cell-based; details: Klebsiella ozaenae; five strains
[25] = tested on: β-alanine aminopeptidase; assay: as above; assay type: cell-based; details: Salmonella paratyphi A; five strains
[26] = tested on: β-alanine aminopeptidase; assay: as above; assay type: cell-based; details: Klebsiella pneumoniae, spp. pneumoniae; five strains
[27] = tested on: β-alanine aminopeptidase; assay: as above; assay type: cell-based; details: Pseudomonas fluorescens; five strains
[28] = tested on: β-alanine aminopeptidase; details: Citrobacter amalonaticus; 2 strains tested; read after 22 to 24 hours
[29] = tested on: β-alanine aminopeptidase; details: Brevundimonas diminuta; 2 strains tested; read after 22 to 24 hours
[30] = tested on: β-alanine aminopeptidase; details: Streptococcus agalactiae; 1 strain tested; read after 22 to 24 hours
[31] = tested on: β-alanine aminopeptidase; details: Streptococcus pyogenes; 2 strains tested; read after 22 to 24 hours
[32] = tested on: β-alanine aminopeptidase; details: Shewanella putrefaciens; 1 strain tested; read after 22 to 24 hours
[33] = tested on: β-alanine aminopeptidase; details: Enterobacter cloacae; 2 strains tested; read after 22 to 24 hours
[34] = tested on: β-alanine aminopeptidase; details: Escherichia coli; 2 strains tested; read after 22 to 24 hours
[35] = tested on: β-alanine aminopeptidase; details: Pseudomonas mendocina; 1 strain tested; read after 22 to 24 hours
[36] = tested on: β-alanine aminopeptidase; details: Proteus vulgaris; 1 strain tested; read after 22 to 24 hours
[37] = tested on: β-alanine aminopeptidase; details: Shewanella algae; 1 strain tested; read after 22 to 24 hours
[38] = tested on: β-alanine aminopeptidase; details: Providencia stuartii; 1 strain tested; read after 22 to 24 hours

β-alanyl-β-naphthylamide
β-alanine aminopeptidase activity, result [1]: negative | β-alanine aminopeptidase activity, result [2]: negative | β-alanine aminopeptidase activity, result [3]: negative | β-alanine aminopeptidase activity, result [4]: negative | β-alanine aminopeptidase activity, result [5]: negative | β-alanine aminopeptidase activity, result [6]: negative | β-alanine aminopeptidase activity, result [7]: negative | β-alanine aminopeptidase activity, result [8]: negative | β-alanine aminopeptidase activity, result [9]: negative | β-alanine aminopeptidase activity, result [10]: negative | β-alanine aminopeptidase activity, result [11]: negative | β-alanine aminopeptidase activity, result [12]: negative | β-alanine aminopeptidase activity, result [13]: negative | β-alanine aminopeptidase activity, result [14]: negative | β-alanine aminopeptidase activity, result [15]: negative | β-alanine aminopeptidase activity, result [16]: negative | β-alanine aminopeptidase activity, result [17]: negative | β-alanine aminopeptidase activity, result [18]: negative | β-alanine aminopeptidase activity, result [19]: negative | β-alanine aminopeptidase activity, result [20]: negative | β-alanine aminopeptidase activity, result [21]: positive | β-alanine aminopeptidase activity, result [22]: negative | β-alanine aminopeptidase activity, result [23]: negative | β-alanine aminopeptidase activity, result [24]: negative | β-alanine aminopeptidase activity, result [25]: negative | β-alanine aminopeptidase activity, result [26]: negative | β-alanine aminopeptidase activity, result [27]: positive

NCCC(=O)c1c(N)cc(Cl)c(O)c1Cl
Number of negative results [28]: 2 | Number positive results [28]: 0 | Number of negative results [29]: 2 | Number positive results [29]: 0 | Number of negative results [30]: 1 | Number positive results [30]: 0 | Number of negative results [31]: 2 | Number positive results [31]: 0 | Number of negative results [32]: 1 | Number positive results [32]: 0 | Number of negative results [33]: 2 | Number positive results [33]: 0 | Number of negative results [34]: 2 | Number positive results [34]: 0 | Number of negative results [35]: 0 | Number positive results [35]: 1 | Number of negative results [36]: 1 | Number positive results [36]: 0 | Number of negative results [37]: 1 | Number positive results [37]: 0 | Number of negative results [38]: 1 | Number positive results [38]: 0
